The assay addresses T1, Recombinant human renin (Homo sapiens, UniProt P00797).
T1 construct: isolate the active form (residues 67-406); made in house
T1 sequence (P00797 67-406): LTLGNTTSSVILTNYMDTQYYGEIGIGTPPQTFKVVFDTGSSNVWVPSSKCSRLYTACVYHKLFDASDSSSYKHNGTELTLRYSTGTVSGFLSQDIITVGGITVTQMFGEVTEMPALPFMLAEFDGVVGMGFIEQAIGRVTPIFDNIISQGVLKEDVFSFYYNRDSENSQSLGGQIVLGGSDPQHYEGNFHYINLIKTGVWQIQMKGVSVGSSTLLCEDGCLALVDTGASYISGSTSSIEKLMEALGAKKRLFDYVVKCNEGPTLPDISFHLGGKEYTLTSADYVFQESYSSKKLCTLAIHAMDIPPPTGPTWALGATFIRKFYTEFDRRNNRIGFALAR
In words: In vitro enzymatic activity assay of renin inhibitors (fluorogenic peptide substrate). Particulars: recombinant human renin 3 nM, 1 μM substrate QXL520/HiLyteFluo488 peptide, pH 7.4, 37° C., fluorescence; values given as ranges; read-out: IC50 of Exemplified Compounds Against Renin, IC50. Format: biochemical. The source says:
Test compounds in varying concentrations may be reacted with recombinant human renin in the presence of substrate, e.g., QXL520-γ-Abu-Ile-His-Pro-Phe-His-Leu-Val-Ile-His-Thr-Lys (HiLyteFluo488)-Arg-OH (Anaspec, San Jose, Calif.). The reaction can be followed kinetically using fluorescence (excitation λ=485 nm; emission λ=538 nm). Inhibition constants (IC50) may be calculated by non-linear curve fitting of the compound concentrations and fluorescence intensities to the standard IC50 equation.
Solutions of test compounds in varying concentrations (≦2 mM final concentration) are prepared in dimethyl sulfoxide (DMSO) and then diluted into assay buffer comprising 50 mM Hepes, 1 mM EDTA, 1 mM DTT, 0.1 mg/ml BSA, 0.01% Brij35, pH 7.4. Alternatively, the assay can be performed with a high BSA concentration, wherein the buffer contains an additional 2% BSA.
Recombinant human renin (3 nM final concentration) is added to the dilutions and pre-incubated with the compounds for 10 minutes at 37° C. As described in Examples A-C above, human renin can be obtained by expressing preprorenin (residue 1-406) in mammalian cells, treating the prorenin (residues 24-406) contained in the culture supernatant with trypsin, and isolate the active form (residues 67-406). After pre-incubation, the reaction is initiated with 1 μM of substrate QXL520-γ-Abu-Ile-His-Pro-Phe-His-Leu-Val-Ile-His-Thr-Lys (HiLyteFluo488)-Arg-OH (Anaspec, San Jose, Calif.). The final DMSO in the assay is 5%. The total volume of the reaction mixture is 20 μL, which can be placed on Greiner 384-well small volume plates.
Renin activity may be determined via fluorescence (excitation λ=485 nm; emission λ=538 nm), e.g., on a Molecular Devices SPECTROmax GEMINI XPS. The fluorescence intensity is determined upon the addition of substrate and determined again after incubation at 37° C. for one hour. The fluorescence intensity of a blank (no inhibition) using vehicle alone is also determined. Renin activity is linearly proportional to the change in fluorescence observed (final−initial).
The percent inhibition of renin at a given compound concentration is defined as:
100%×[1−(Fcompound/Fblank)]
where Fcompound is the observed fluorescence at a given concentration of test compound and Fblank is the observed fluorescence in the presence of vehicle alone.
The pIC50 value (negative log of the molar concentration of the compound that produces 50% inhibition) of a test compound is calculated by non-linear least squares curve fitting of the equation:
Percent Inhibition=100%/(1+(10^−pIC50/10^log [I]))
to percent inhibition versus compound concentration. The 50% inhibitory concentration (IC50) of a test compound is calculated by raising 10 to the negative pIC50 (10^−pIC50).

The results in this text go back to patent publication US20090105251A1, “Renin inhibitors” (priority 2007, published 2009).

For orientation: IC50 means the concentration at which inhibition is half-maximal.

Turning to `O=C(c1ccccc1Cc1ccccc1)N1CCNC[C@H]1Cc1ccccc1` [Example 21, (R)-(2-benzylphenyl)(2-benzylpiperazin-1-yl)methanone], the IC50 was 1 to 50 µM.

For `O=C(c1cc(-c2ccccc2Oc2ccccc2)cs1)N1CCNC[C@H]1Cc1ccccc1` [Example 43, (R)-(2-benzylpiperazin-1-yl)(4-(2-phenoxyphenyl)thiophen-2-yl)methanone], the IC50 lay within 1 to 50 µM.

Take `O=C(c1ccc(F)cc1-c1ccccc1Oc1ccccc1)N1CCNC[C@H]1Cc1ccccc1` [Example 15, ((R)-2-benzylpiperazin-1-yl)(5-fluoro-2′-phenoxybiphenyl-2-yl)methanone]: the IC50 is 1 to 50 µM.

With `Cc1cc(C)c(C#N)c(Oc2ccccc2-c2ccsc2C(=O)N2CCNC[C@H]2Cc2ccccc2)n1` [Example 9, 2-(2-(2-((R)-2-benzylpiperazine-1-carbonyl)thiophen-3-yl)phenoxy)-4,6-dimethylnicotinonitrile], the half-maximal inhibitory concentration (IC50) was 1 to 50 µM.

On to `N#Cc1ccccc1Sc1ccccc1C(=O)N1CCNC[C@H]1Cc1ccccc1` [Example 20, (R)-2-(2-(2-benzylpiperazine-1-carbonyl)phenylthio)benzonitrile], for which the IC50 was 1 to 50 µM.

For the compound `COc1ccc(C(=O)c2ccccc2C(=O)N2CCNC[C@H]2Cc2ccccc2)cc1` [Example 25, (R)-(2-benzylpiperazin-1-yl)(2-(4-methoxybenzoyl)phenyl)methanone], the IC50 was 50 to 100 µM.

Turning to `O=C1CC(C(=O)N2CCNC[C@H]2Cc2ccccc2)CN1C(c1ccccc1)c1ccccc1` (stereo partly drawn) [Example 24, 1-benzhydryl-4-((R)-2-benzylpiperazine-1-carbonyl)pyrrolidin-2-one], the IC50 lay in the range of 1 to 50 µM.

Turning to `Cc1cc2cc(C(=O)N3CCNC[C@H]3Cc3ccccc3)n(Cc3ccccc3)c2s1` [Example 34, (R)-(6-benzyl-2-methyl-6H-thieno[2,3-b]pyrrol-5-yl)(2-benzylpiperazin-1-yl)methanone], the IC50 lay in the range of 1 to 50 µM.

`O=C(c1ccccc1-c1ccc(F)cc1)N1CCNC[C@H]1Cc1ccccc1` [Example 31, (R)-(2-benzylpiperazin-1-yl)(4′-fluorobiphenyl-2-yl)methanone]: the IC50 is 1 to 50 µM.

For `N#Cc1ccccc1Oc1ccccc1-c1ccsc1C(=O)N1CCNC[C@H]1Cc1ccccc1` [Example 10, 2-(2-(2-((R)-2-benzylpiperazine-1-carbonyl)thiophen-3-yl)phenoxy)benzonitrile], the IC50 was in the range of 1 to 50 µM.

`O=C(c1ccsc1-c1ccccc1Oc1ccccc1)N1CCNC[C@H]1Cc1ccccc1` [Example 12, ((R)-2-benzylpiperazin-1-yl)(2-(2-phenoxyphenyl)thiophen-3-yl)methanone]: the IC50 is less than 1 µM.

`O=C(c1cccn1-c1ccccc1Oc1ccccc1)N1CCNC[C@H]1Cc1ccccc1` [Example 42, ((R)-2-benzylpiperazin-1-yl)(1-(2-phenoxyphenyl)-1H-pyrrol-2-yl)methanone]: the IC50 was in the range of 1 to 50 µM.

`CC(C)(C)n1ncc(C(=O)N2CCNC[C@H]2Cc2ccccc2)c1-c1ccccc1` [Example 38, (R)-(2-benzylpiperazin-1-yl)(1-tert-butyl-5-phenyl-1H-pyrazol-4-yl)methanone]: the IC50 lay within 1 to 50 µM.

As to `Cc1oc(-c2ccccc2)nc1Cn1nc(C(=O)N2CCNC[C@H]2Cc2ccccc2)c2ccccc21` [Example 37, (R)-(2-benzylpiperazin-1-yl)(1-((5-methyl-2-phenyloxazol-4-yl)methyl)-1H-indazol-3-yl)methanone], the IC50 was in the range of 1 to 50 µM.

Regarding `CC1(C)Cc2cccc(C(=O)N3CCNC[C@H]3Cc3ccccc3)c2O1` [Example 35, (R)-(2-benzylpiperazin-1-yl)(2,2-dimethyl-2,3-dihydrobenzofuran-7-yl)methanone], the IC50 fell in the range of 1 to 50 µM.
